The target in data set [1] is T1, EGF-R (HER-1) (Homo sapiens, UniProt P00533).
T1 construct: using the recombinant intracellular domain of the EGF-receptor [EGF-R ICD
The experiment in a line: Inhibition of EGF-R tyrosine kinase activity (recombinant intracellular domain, EGF-R ICD). It is filed as biochemical. How it is done: J. Biochem. 207, 265-275 (1992)].
(§1) Inhibition of the Tyrosine Kinase Activity of EGF-R (HER-1), ErbB-2 (HER-2) and VEGF Receptor (KDR)
(§2) The inhibition tests are carried out as described above.

Data set [2] addresses ErbB-2 (HER-2) (Homo sapiens, UniProt P04626). Kind of data set: Inhibition of ErbB-2 tyrosine kinase activity. It is filed as biochemical. How it is done:
The inhibitory activity (IC50) is approximately in the range of 0.001 to 0.5 μM. The inhibition of ErbB-2 tyrosine kinase (HER-2) can be determined, for example, analogously to the method used for EGF-R protein tyrosine kinase [see C. House et al., Europ. J. Biochem. 140, 363-367 (1984)]. The ErbB-2 kinase can be isolated, and its activity determined, by means of protocols known per se, for example in accordance with T. Akiyama et al., Science 232, 1644 (1986).
as §1, §2

Data set [3] concerns the target VEGF Receptor (KDR) (Homo sapiens, UniProt P35968). Kind of data set: Inhibition of KDR tyrosine kinase activity. It is filed as biochemical. How it is done:
The compounds of the present invention are therefore very effective dual inhibitors of EGF- and VEGF-receptor family members. For inhibition of KDR and Flt-1 and inhibition of growth factor-induced proliferation of HUVECS see J. Wood et al., Cancer Res. 60, 2178-2189 (2000). The compounds of formula I inhibit e.g. the KDR tyrosine kinase activity with an IC50 of from about 1 nM to about 1 μM, especially from about 5 nM to about 0.5 μM.
as §1, §2

Structures are written as SMILES.

The term IC50 denotes the concentration at which inhibition is half-maximal. As usually defined, the melting point is the temperature, or range, at which the solid turns liquid.

T1 sequence (P00533 669-1210 limits assumed): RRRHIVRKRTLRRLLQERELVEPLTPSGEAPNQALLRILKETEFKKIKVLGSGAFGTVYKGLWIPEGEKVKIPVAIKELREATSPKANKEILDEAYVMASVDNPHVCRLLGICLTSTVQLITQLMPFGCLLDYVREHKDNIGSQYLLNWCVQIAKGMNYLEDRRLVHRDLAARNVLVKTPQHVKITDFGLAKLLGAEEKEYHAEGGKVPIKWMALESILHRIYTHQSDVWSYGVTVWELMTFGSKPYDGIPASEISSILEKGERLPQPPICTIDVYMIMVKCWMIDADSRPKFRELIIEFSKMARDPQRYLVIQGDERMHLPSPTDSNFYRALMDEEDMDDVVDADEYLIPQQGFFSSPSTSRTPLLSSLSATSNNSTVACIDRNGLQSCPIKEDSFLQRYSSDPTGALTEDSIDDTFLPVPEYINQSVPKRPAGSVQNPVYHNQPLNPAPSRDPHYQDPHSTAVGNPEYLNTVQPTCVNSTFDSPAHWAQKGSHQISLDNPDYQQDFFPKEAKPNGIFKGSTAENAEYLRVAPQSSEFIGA
Chain of ErbB-2 (HER-2) (P04626 23-1255): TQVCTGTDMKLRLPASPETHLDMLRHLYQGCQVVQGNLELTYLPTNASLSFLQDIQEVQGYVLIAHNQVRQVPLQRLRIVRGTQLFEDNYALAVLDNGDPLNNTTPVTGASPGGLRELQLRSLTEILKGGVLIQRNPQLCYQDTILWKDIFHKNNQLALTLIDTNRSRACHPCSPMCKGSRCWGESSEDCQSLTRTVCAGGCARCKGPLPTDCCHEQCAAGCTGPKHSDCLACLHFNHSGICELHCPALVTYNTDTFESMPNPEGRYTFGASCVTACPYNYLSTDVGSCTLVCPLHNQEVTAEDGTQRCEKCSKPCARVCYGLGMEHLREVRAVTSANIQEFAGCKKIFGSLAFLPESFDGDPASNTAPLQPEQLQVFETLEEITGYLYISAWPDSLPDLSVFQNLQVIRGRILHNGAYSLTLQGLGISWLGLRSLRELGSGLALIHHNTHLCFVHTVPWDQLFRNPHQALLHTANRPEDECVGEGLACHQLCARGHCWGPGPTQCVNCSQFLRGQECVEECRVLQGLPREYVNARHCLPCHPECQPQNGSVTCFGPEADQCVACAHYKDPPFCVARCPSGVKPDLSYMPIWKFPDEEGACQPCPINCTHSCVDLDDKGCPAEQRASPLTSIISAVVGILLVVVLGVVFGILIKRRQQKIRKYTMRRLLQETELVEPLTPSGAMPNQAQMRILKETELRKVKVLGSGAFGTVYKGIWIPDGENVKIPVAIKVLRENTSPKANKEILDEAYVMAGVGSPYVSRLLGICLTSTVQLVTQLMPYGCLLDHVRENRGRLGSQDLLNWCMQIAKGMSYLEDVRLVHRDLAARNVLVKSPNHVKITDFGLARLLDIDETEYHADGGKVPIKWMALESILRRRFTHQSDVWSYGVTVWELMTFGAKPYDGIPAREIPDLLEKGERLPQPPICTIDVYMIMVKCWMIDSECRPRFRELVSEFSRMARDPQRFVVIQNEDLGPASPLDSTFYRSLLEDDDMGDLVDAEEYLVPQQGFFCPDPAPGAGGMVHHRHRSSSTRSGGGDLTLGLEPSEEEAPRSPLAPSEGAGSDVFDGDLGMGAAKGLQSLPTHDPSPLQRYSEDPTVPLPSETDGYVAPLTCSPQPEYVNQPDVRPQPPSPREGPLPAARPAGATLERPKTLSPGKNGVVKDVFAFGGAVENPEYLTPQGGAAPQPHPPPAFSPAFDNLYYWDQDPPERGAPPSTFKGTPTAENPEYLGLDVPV
Chain of VEGF Receptor (KDR) (P35968 20-1356): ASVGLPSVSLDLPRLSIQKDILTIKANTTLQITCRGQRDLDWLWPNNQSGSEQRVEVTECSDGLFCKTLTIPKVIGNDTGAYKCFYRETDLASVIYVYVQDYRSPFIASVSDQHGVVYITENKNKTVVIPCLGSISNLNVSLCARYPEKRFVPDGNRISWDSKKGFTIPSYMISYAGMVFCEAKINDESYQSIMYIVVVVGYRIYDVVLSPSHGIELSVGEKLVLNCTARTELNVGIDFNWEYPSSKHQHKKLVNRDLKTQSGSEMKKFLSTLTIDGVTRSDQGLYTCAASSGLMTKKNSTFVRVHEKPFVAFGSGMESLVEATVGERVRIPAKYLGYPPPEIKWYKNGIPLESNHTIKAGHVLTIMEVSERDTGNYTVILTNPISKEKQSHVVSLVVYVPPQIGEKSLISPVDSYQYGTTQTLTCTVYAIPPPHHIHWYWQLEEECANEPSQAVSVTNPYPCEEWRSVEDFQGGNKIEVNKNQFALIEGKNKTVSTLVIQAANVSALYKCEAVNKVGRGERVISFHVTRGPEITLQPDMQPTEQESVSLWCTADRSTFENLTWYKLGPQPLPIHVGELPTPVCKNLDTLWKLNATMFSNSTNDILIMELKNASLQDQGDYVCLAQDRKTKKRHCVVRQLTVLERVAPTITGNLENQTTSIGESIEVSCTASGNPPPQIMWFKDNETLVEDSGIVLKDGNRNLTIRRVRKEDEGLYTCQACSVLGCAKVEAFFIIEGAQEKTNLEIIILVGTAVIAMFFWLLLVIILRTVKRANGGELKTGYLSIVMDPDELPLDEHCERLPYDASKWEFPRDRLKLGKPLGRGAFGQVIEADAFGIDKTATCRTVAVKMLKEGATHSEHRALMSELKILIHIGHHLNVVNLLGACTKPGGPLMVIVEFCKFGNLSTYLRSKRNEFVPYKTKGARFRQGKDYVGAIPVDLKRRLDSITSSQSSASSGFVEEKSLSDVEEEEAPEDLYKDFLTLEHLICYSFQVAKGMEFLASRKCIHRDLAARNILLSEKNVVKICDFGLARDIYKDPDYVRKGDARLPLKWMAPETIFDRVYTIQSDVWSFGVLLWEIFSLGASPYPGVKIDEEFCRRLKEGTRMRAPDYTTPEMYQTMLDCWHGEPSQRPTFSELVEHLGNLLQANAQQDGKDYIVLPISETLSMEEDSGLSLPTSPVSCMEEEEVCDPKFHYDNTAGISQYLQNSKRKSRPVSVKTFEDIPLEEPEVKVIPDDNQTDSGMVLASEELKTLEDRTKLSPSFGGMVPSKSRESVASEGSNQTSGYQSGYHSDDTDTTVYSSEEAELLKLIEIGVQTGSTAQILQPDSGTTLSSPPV

Compound `CN1CCN(Cc2ccc(-c3cc4c(NCc5ccccc5Cl)ncnc4[nH]3)cc2)CC1` [Example 94, (2-Chloro-benzyl)-{6-[4-(4-methyl-piperazin-1-ylmethyl)-phenyl]-7H-pyrrolo[2,3-d]pyrimidin-4-yl}-amine] displayed a melting point of 267 to 269 °C. Besides, in data set [1], the IC50 was 1.8 nM. In data set [2], this compound came in with an IC50 of 16 nM. In data set [3], this compound showed an IC50 of 42 nM.
On the same counts, the results for `C[C@@H](Nc1ncnc2[nH]c(-c3ccc(CNC(=O)CN4CCN(C)CC4)cc3)cc12)c1ccccc1` [Example 43, 2-(4-Methyl-piperazin-1-yl)-N-{4-[4-((R)-1-phenyl-ethylamino)-7H-pyrrolo[2,3-d]pyrimidin-6-yl]-benzyl}-acetamide] are 150 to 152 °C, 5 nM, 11.5 nM and 51.5 nM.
Compound `C[C@@H](Nc1ncnc2[nH]c(-c3ccc(CN4CCCCC4)cc3)cc12)c1ccccc1` [Example 14, ((R)-1-Phenyl-ethyl)-[6-(4-piperidin-1-ylmethyl-phenyl)-7H-pyrrolo[2,3-d]pyrimidin-4-yl]-amine] registered a melting point of 246 to 248 °C. Further, the half-maximal inhibitory concentration (IC50) in data set [1] came out at 6.3 nM. This compound also returned an IC50 in data set [2] of 8.5 nM. In data set [3], this compound registered an IC50 of 92.7 nM.
On the same counts, the results for `CN1CCN(Cc2ccc(-c3cc4c(Nc5ccc(OCc6ccccc6)cc5)ncnc4[nH]3)cc2)CC1` [Example 18, (4-Benzyloxy-phenyl)-{6-[4-(4-methyl-piperazin-1-ylmethyl)-phenyl]-7H-pyrrolo[2,3-d]pyrimidin-4-yl}-amine] are 256 to 258 °C, 16.5 nM, 31.5 nM and 24.5 nM.
On to `C[C@@H](Nc1ncnc2[nH]c(-c3ccc(CNCCN4CCOCC4)cc3)cc12)c1ccccc1` [Example 16a, (6-{4-[(2-Morpholin-4-yl-ethylamino)-methyl]-phenyl}-7H-pyrrolo[2,3-d]pyrimidin-4-yl)-((R)-1-phenyl-ethyl)-amine], for which the melting point fell in the range of 222 to 224 °C. Also, in data set [1], the IC50 was 1.2 nM. Also, it took 16 nM to reach half-maximal inhibition in data set [2] (IC50). Also, the IC50 in data set [3] is 61 nM.
Compound `Clc1cccc(CNc2ncnc3[nH]c(-c4ccc(CN5CCOCC5)cc4)cc23)c1` [Example 86, (3-Chloro-benzyl)-[6-(4-morpholin-4-ylmethyl-phenyl)-7H-pyrrolo[2,3-d]pyrimidin-4-yl]-amine] displayed a melting point of 253 to 254.5 °C. Further, the IC50 in data set [1] amounted to 5.5 nM. The compound further yielded an IC50 in data set [2] of 16 nM. In data set [3], the IC50 was determined as 105 nM.
The compound `O=C(CN1CCOCC1)NCc1ccc(-c2cc3c(Nc4ccc(F)c(Cl)c4)ncnc3[nH]2)cc1` [Example 48, N-{4-[4-(3-Chloro-4-fluoro-phenylamino)-7H-pyrrolo[2,3-d]pyrimidin-6-yl]-benzyl}-2-morpholin-4-yl-acetamide] showed a melting point of 272 to 275 °C. The concentration for half-maximal inhibition (IC50) in data set [1] was 5.7 nM. In addition, 7.5 nM corresponded to half-maximal inhibition in data set [2] (IC50). For the same compound, it took 58 nM to reach half-maximal inhibition in data set [3] (IC50).
Compound `CN1CCN(CC(=O)NCc2ccc(-c3cc4c(Nc5ccc(OCc6ccccc6)cc5)ncnc4[nH]3)cc2)CC1` [Example 52, N-{4-[4-(4-Benzyloxy-phenylamino)-7H-pyrrolo[2,3-d]pyrimidin-6-yl]-benzyl}-2-(4-methyl-piperazin-1-yl)-acetamide] gave a melting point of 232 to 234 °C. Besides, the IC50 in data set [1] worked out at 15.7 nM. In addition, in data set [2], half-maximal inhibition (IC50) was put at 14 nM. Also, it took 125 nM to reach half-maximal inhibition in data set [3] (IC50).
The corresponding values for `Fc1ccc(Nc2ncnc3[nH]c(-c4ccc(CN5CCOCC5)cc4)cc23)cc1Cl` [Example 7, (3-Chloro-4-fluoro-phenyl)-[6-(4-morpholin-4-ylmethyl-phenyl)-7H-pyrrolo[2,3-d]pyrimidin-4-yl]-amine] are 298 to 300 °C, 4 nM, 11 nM and 58 nM.
On the same counts, the results for `C[C@@H](Nc1ncnc2[nH]c(-c3ccc(CN4CCOCC4)cc3)cc12)c1ccccc1` [Example 15, [6-(4-Morpholin-4-ylmethyl-phenyl)-7H-pyrrolo[2,3-d]pyrimidin-4-yl]-((R)-1-phenyl-ethyl)-amine] are 263 to 265 °C, 5 nM, 6.5 nM and 49.3 nM.
On the same counts, the results for `CCN1CCN(Cc2ccc(-c3cc4c(Nc5ccc(F)c(Cl)c5)ncnc4[nH]3)cc2)CC1` [Example 3, (3-Chloro-4-fluoro-phenyl)-{6-[4-(4-ethyl-piperazin-1-ylmethyl)-phenyl]-7H-pyrrolo[2,3-d]pyrimidin-4-yl}-amine] are 266 to 268 °C, 3.1 nM, 8 nM and 10.7 nM.
Regarding `CN1CCN(Cc2ccc(-c3cc4c(Nc5ccc(F)c(Cl)c5)ncnc4[nH]3)cc2)CC1` [Example 5, (3-Chloro-4-fluoro-phenyl)-{6-[4-(4-methyl-piperazin-1-ylmethyl)-phenyl]-7H-pyrrolo[2,3-d]pyrimidin-4-yl}-amine], the melting point lay in the range of 264 to 266 °C. Besides, the IC50 in data set [1] was determined as 3.1 nM. Half-maximal inhibition in data set [2] (IC50) required 6.7 nM. In data set [3], this compound came in with an IC50 of 6 nM.
The corresponding values for `Fc1ccc(Nc2ncnc3[nH]c(-c4ccc(CN5CCCC5)cc4)cc23)cc1Cl` [Example 4, (3-Chloro-4-fluoro-phenyl)-[6-(4-pyrrolidin-1-ylmethyl-phenyl)-7H-pyrrolo[2,3-d]pyrimidin-4-yl]-amine] are 268 to 270 °C, 3.1 nM, 7.2 nM and 9.3 nM.
On to `Fc1ccc(Nc2ncnc3[nH]c(-c4ccc(CNC5CCOCC5)cc4)cc23)cc1Cl` [Example 8a, (3-Chloro-4-fluoro-phenyl)-(6-{4-[(tetrahydro-pyran-4-ylamino)-methyl]-phenyl}-7H-pyrrolo[2,3-d]pyrimidin-4-yl)-amine], for which the melting point fell in the range of 288 to 290 °C. For the same compound, the half-inhibitory concentration (IC50) in data set [1] is 2.4 nM. Besides, the midpoint of inhibition in data set [2], the IC50, lay at 9.4 nM. This compound gave an IC50 in data set [3] of 17 nM.
The compound `C[C@@H](Nc1ncnc2[nH]c(-c3ccc(CN4CCCC4)cc3)cc12)c1ccccc1` [Example 12, ((R)-1-Phenyl-ethyl)-[6-(4-pyrrolidin-1-ylmethyl-phenyl)-7H-pyrrolo[2,3-d]pyrimidin-4-yl]-amine] showed a melting point of 254 to 256 °C. Also, the IC50 in data set [1] is 4.7 nM. Besides, in data set [2], the IC50 was 5 nM. Also, in data set [3], the IC50 was 139 nM.
The corresponding values for `Fc1ccc(Nc2ncnc3[nH]c(-c4ccc(CN5CCCCC5)cc4)cc23)cc1Cl` [Example 6, (3-Chloro-4-fluoro-phenyl)-[6-(4-piperidin-1-ylmethyl-phenyl)-7H-pyrrolo[2,3-d]pyrimidin-4-yl]-amine] are 267 to 269 °C, 7 nM, 5 nM and 12.7 nM.
Take `Cc1cccc(CNc2ncnc3[nH]c(-c4ccc(CN(C)C)cc4)cc23)c1` [107f^]: the IC50 in data set [1] was determined as 2.5 nM; in data set [2], 45 nM; in data set [3] it was 19 nM.

Source of the values: patent US7323469B2, “7H-pyrrolo[2,3-d]pyrimidine derivatives” (Novartis AG, priority 2001, dated 2008).
